Assay results taken from ChEMBL document CHEMBL1201862, “PubChem BioAssay data set” (2004).
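Five concentrations, 48 hours, 96-well plates. GI50 is the concentration that inhibits growth by half.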 The source made the active and inactive calls. Cut-off read from the data, not from the text of the source: active = GI50 up to about 1.1 µM and inactive = higher.

Columns and labels:
Assay in all cases: NCI-60 cell line screen, 48 h
[1] = tested on: BT-549
[2] = tested on: SK-OV-3
[3] = tested on: ACHN
[4] = tested on: SF-295
[5] = tested on: HOP-62
[6] = tested on: SK-MEL-5
[7] = tested on: T47D
[8] = tested on: MCF7
[9] = tested on: U-251
[10] = tested on: UACC-257
[11] = tested on: KM12
[12] = tested on: HCT-116
[13] = tested on: NCI/ADR-RES
[14] = tested on: DU-145
[15] = tested on: SNB-19
[16] = tested on: HT-29
[17] = tested on: MDA-MB-231
[18] = tested on: CAKI-1
[19] = tested on: SN12C
[20] = tested on: COLO 205
[21] = tested on: UACC-62
[22] = tested on: OVCAR-5
[23] = tested on: M14
[24] = tested on: MDA-N
[25] = tested on: Hs-578T
[26] = tested on: HCT-15
[27] = tested on: NCI-H23
[28] = tested on: SK-MEL-2
[29] = tested on: SNB-75
[30] = tested on: NCI-H522
[31] = tested on: SF-268
[32] = tested on: OVCAR-8
[33] = tested on: Malme-3M
[34] = tested on: EKVX
[35] = tested on: OVCAR-4
[36] = tested on: TK-10
[37] = tested on: A549
[38] = tested on: MDA-MB-435
[39] = tested on: HOP-92
[40] = tested on: UO-31
[41] = tested on: A498
[42] = tested on: SR
[43] = tested on: LOX IMVI
[44] = tested on: SK-MEL-28
[45] = tested on: K562
[46] = tested on: NCI-H226
[47] = tested on: PC-3
[48] = tested on: HCC 2998
[49] = tested on: HL-60
[50] = tested on: 786-0
[51] = tested on: MOLT-4
[52] = tested on: NCI-H460
[53] = tested on: IGROV-1
[54] = tested on: OVCAR-3
[55] = tested on: SW-620
[56] = tested on: CCRF-CEM
[57] = tested on: RPMI-8226
[58] = tested on: SF-539
[59] = tested on: RXF 393

Measured: GI50

CC1=C(C)[C@@]2(C)O[C@@]2(C)O[C@@]2(C)O[C@@]12C
> 100 µM: [26]
inactive: [1] > 100 µM | [2] > 100 µM | [3] > 100 µM | [4] > 100 µM | [5] > 100 µM | [6] > 100 µM | [7] > 100 µM | [8] > 100 µM | [9] > 100 µM | [10] > 100 µM | [11] > 100 µM | [12] > 100 µM | [13] > 100 µM | [14] > 100 µM | [15] > 100 µM | [16] > 100 µM | [17] > 100 µM | [18] > 100 µM | [19] > 100 µM | [20] > 100 µM | [21] > 100 µM | [22] > 100 µM | [23] > 100 µM | [24] > 100 µM | [25] > 100 µM | [27] > 100 µM | [28] > 100 µM | [29] > 100 µM | [30] > 100 µM | [31] > 100 µM | [32] > 100 µM | [33] > 100 µM | [34] > 100 µM | [35] > 100 µM | [36] > 100 µM | [37] > 100 µM | [38] > 100 µM | [39] > 100 µM | [40] > 100 µM | [41] > 100 µM | [42] > 100 µM | [43] > 100 µM | [44] > 100 µM | [45] > 100 µM | [46] > 100 µM | [47] > 100 µM

COC(=O)c1cc(NC2OCC(OC(C)=O)C(OC(C)=O)C2OC(C)=O)nc(SC)c1C(=O)OC (stereo unspecified)
> 100 µM: [26]
inactive: [1] > 100 µM | [3] > 100 µM | [4] > 100 µM | [5] > 100 µM | [6] > 100 µM | [7] > 100 µM | [8] > 100 µM | [9] > 100 µM | [10] > 100 µM | [11] > 100 µM | [12] > 100 µM | [48] > 100 µM | [49] 74 µM | [13] > 100 µM | [14] > 100 µM | [15] > 100 µM | [50] > 100 µM | [16] > 100 µM | [51] > 100 µM | [17] > 100 µM | [18] > 100 µM | [19] > 100 µM | [52] > 100 µM | [20] > 100 µM | [21] > 100 µM | [22] > 100 µM | [23] > 100 µM | [24] > 100 µM | [53] > 100 µM | [25] > 100 µM | [54] > 100 µM | [27] > 100 µM | [55] > 100 µM | [28] > 100 µM | [29] 49.9 µM | [30] > 100 µM | [31] > 100 µM | [32] > 100 µM | [34] > 100 µM | [35] > 100 µM | [36] > 100 µM | [37] > 100 µM | [38] > 100 µM | [39] > 100 µM | [40] > 100 µM | [56] > 100 µM | [42] > 100 µM | [43] > 100 µM | [44] > 100 µM | [57] > 100 µM | [58] > 100 µM | [47] > 100 µM

O=C1CC2CCC(C1)[S+]2[O-] (stereo unspecified)
inactive: [1] > 100 µM | [2] > 100 µM | [4] 61.4 µM | [5] > 100 µM | [6] > 100 µM | [7] > 100 µM | [8] > 100 µM | [9] > 100 µM | [10] > 100 µM | [11] > 100 µM | [12] > 100 µM | [48] > 100 µM | [49] > 100 µM | [13] > 100 µM | [59] > 100 µM | [14] > 100 µM | [15] > 100 µM | [50] > 100 µM | [16] > 100 µM | [51] > 100 µM | [17] > 100 µM | [18] > 100 µM | [19] > 100 µM | [52] > 100 µM | [20] > 100 µM | [21] > 100 µM | [23] > 100 µM | [24] > 100 µM | [53] > 100 µM | [25] > 100 µM | [54] > 100 µM | [27] > 100 µM | [55] > 100 µM | [28] > 100 µM | [29] > 100 µM | [30] > 100 µM | [31] > 100 µM | [32] > 100 µM | [33] > 100 µM | [34] > 100 µM | [35] > 100 µM | [36] > 100 µM | [37] > 100 µM | [38] > 100 µM | [39] > 100 µM | [40] > 100 µM | [56] > 100 µM | [42] > 100 µM | [43] > 100 µM | [44] > 100 µM | [45] > 100 µM | [57] > 100 µM | [46] > 100 µM | [58] > 100 µM | [47] > 100 µM
> 100 µM: [26]
